# Experimental data published in paper PMC9428149, “Tackling recalcitrant Pseudomonas aeruginosa infections in critical illness via anti-virulence monotherapy” (Nature Communications, 2022).
# pIC50: −log10 of the molar value. Where two headings read alike, the source gives them in different places.
# Legend:
# [1] = system: mvfR mutant constitutively expressing the pqsABCDE operon; type: cell-based; conditions: Pseudomonas aeruginosa, control about 100, single replicates (Figure 4a)
# [2] = system: pqsA promoter (PA14 PpqsA-GFPASV); assay: pqsA-GFP reporter expression; type: cell-based, Pseudomonas aeruginosa; conditions: Pseudomonas aeruginosa; for activity at 50 µM: PA14, read-out: % Production pqsA-GFP; for pIC50: PA14, read-out: IC50 pqsA-GFP expression, PA14, 13 concentrations
# [3] = system: PA14 isogenic mutant ΔmvfR AT/P cells; assay: AT/P cell formation in ΔmvfR mutant (off-target); conditions: Pseudomonas aeruginosa, PA14, 24 h, read-out: AT/P cell formation, ΔmvfR + compound; PA14 about 100; single replicates (Figure 4b)
# [4] = system: 16 MDR P. aeruginosa clinical isolates; assay: Pyocyanin production in MDR clinical isolates; conditions: Pseudomonas aeruginosa, 18 h, Control about 100, replicates
# [5] = Solubility in iPBS pH 7.4 by HPLC; type: physicochemical; conditions: isotonic phosphate buffer (iPBS), aqueous with cosolvent or surfactant or cyclodextrin, kinetic from dmso stock; iPBS pH 7.4, HPLC; read-out: Solubility (M) in PBS
# Method in brief: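 Compounds from 10 mM DMSO stock shaken 4 h at room temperature in iPBS pH 7.4 (10 mM PBS, 2.7 mM KCl, 140 mM NaCl, 0.05% Tween), then filtered. Concentration measured by HPLC-UV against a known standard solution; solubility given as ratio of compound in test solution to standard.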
# [6] = system: pyocyanin production in PA14; assay: Pyocyanin production assay; conditions: Pseudomonas aeruginosa; for activity at 50 µM: PA14, 18 h, read-out: % Production Pyocyanin; for pIC50: PA14, read-out: IC50 pyocyanin production
# MvfR protein (MvfRC87) = target: T1, MvfR protein (MvfRC87) (Pseudomonas aeruginosa, UniProt Q9I4X0); type: binding; conditions: SPR
# T1 construct: The MvfRC87 protein purified as in Xiao et. al., 2006; made in house
# Method in brief: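 MvfRC87 amine-coupled to a CM7 chip (3000–5000 RU) and binding measured by SPR. Double-reference-corrected responses 5 s before end of association plotted against concentration, for inhibitor alone and with native ligand PQS, compared with responses calculated for different binding sites.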
# ΔmvfR biofilm = assay: Biofilm formation of ΔmvfR mutant (off-target); conditions: Pseudomonas aeruginosa, PA14, 24 h, read-out: Biofilm formation, ΔmvfR + compound; PA14 about 100; single replicates (Figure 4c)
# [7] = system: MvfR-regulated small molecules in PA14; assay: Production of HAQs, 2-AA, DHQ and AA in PA14 cultures (LC-MS); conditions: Pseudomonas aeruginosa
# PA14 AT/P cells = assay: AT/P cells formation assay in PA14; type: cell-based, Pseudomonas aeruginosa; conditions: Pseudomonas aeruginosa, PA14, 24 h, read-out: inhibition of AT/P cells formation
# [8] = read-out: HQNO, ΔmvfR-pqsABCD strain
# [9] = read-out: Pyocyanin production relative to Control, clinical isolate LGR-4325
# [10] = read-out: Pyocyanin production relative to Control, clinical isolate LGR-4326
# [11] = read-out: Pyocyanin production relative to Control, clinical isolate LGR-4327
# [12] = read-out: Pyocyanin production relative to Control, clinical isolate LGR-4328
# [13] = read-out: Pyocyanin production relative to Control, clinical isolate LGR-4330
# [14] = read-out: Pyocyanin production relative to Control, clinical isolate LGR-4331 (first section, r117)
# [15] = read-out: Pyocyanin production relative to Control, clinical isolate LGR-4331 (second section, r140)
# [16] = read-out: Pyocyanin production relative to Control, clinical isolate LGR-4333
# [17] = read-out: Pyocyanin production relative to Control, clinical isolate LGR-4343
# [18] = read-out: Pyocyanin production relative to Control, clinical isolate LGR-4344
# [19] = read-out: Pyocyanin production relative to Control, clinical isolate LGR-4348
# [20] = read-out: Pyocyanin production relative to Control, clinical isolate LGR-4356
# [21] = read-out: Pyocyanin production relative to Control, clinical isolate LGR-4362
# [22] = read-out: Pyocyanin production relative to Control, clinical isolate LGR-4363
# [23] = read-out: Pyocyanin production relative to Control, clinical isolate LGR-4364 (first section, r326)
# [24] = read-out: Pyocyanin production relative to Control, clinical isolate LGR-4364 (second section, r349)
# [25] = PA14, read-out: % Production 2-AA
# [26] = PA14, read-out: % Production AA
# [27] = PA14, read-out: % Production DHQ
# [28] = PA14, read-out: % Production HHQ
# [29] = PA14, read-out: % Production HQNO
# [30] = PA14, read-out: % Production PQS
# [31] = PA14, read-out: HHQ production inhibition
# [32] = PA14, read-out: HQNO production inhibition
# [33] = PA14, read-out: PQS production inhibition
# [34] = PA14, read-out: inhibition of 2-AA production
# [35] = PA14, read-out: inhibition of DHQ production
# T1 sequence (Q9I4X0 87-332): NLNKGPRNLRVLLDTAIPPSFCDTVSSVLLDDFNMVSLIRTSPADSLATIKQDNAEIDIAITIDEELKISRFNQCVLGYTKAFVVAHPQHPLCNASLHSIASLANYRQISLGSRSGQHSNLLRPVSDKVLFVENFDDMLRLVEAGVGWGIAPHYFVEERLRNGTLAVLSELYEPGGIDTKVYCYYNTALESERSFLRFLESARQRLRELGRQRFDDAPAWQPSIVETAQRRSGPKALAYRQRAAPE
smiles,measurement,setting,value
N#Cc1ccc(NC(=O)CC(=O)Nc2ccc(Cl)cc2)cc1 [D41],activity at 50 µM,[1]; [8],81.9%
same,activity at 50 µM,[2],8%
same,pIC50,[2],5.96
same,activity at 10 µM,[3],43.4%
same,activity at 10 µM,[4]; [9],15.5%
same,activity at 10 µM,[4]; [10],14.8%
same,activity at 10 µM,[4]; [11],34.4%
same,activity at 10 µM,[4]; [12],11.9%
same,activity at 10 µM,[4]; [13],13.4%
same,activity at 10 µM,[4]; [14],17.4%
same,activity at 10 µM,[4]; [15],10.7%
same,activity at 10 µM,[4]; [16],18.8%
same,activity at 10 µM,[4]; [17],17.4%
same,activity at 10 µM,[4]; [18],21.8%
same,activity at 10 µM,[4]; [19],17.7%
same,activity at 10 µM,[4]; [20],18.8%
same,activity at 10 µM,[4]; [21],35.7%
same,activity at 10 µM,[4]; [22],23.4%
same,activity at 10 µM,[4]; [23],19.1%
same,activity at 10 µM,[4]; [24],22%
same,solubility at 4 h,[5],1.3e-05 M
same,activity at 50 µM,[6],6%
same,pIC50,[6],5.74
same,Response Unit (RU),MvfR protein (MvfRC87); Concentration 1.00E-05 M,28.8 RU
same,Response Unit (RU),MvfR protein (MvfRC87); Concentration 1.00E-06 M,22.7 RU
same,Response Unit (RU),MvfR protein (MvfRC87); Concentration 1.00E-07 M,10.6 RU
same,Response Unit (RU),MvfR protein (MvfRC87); Concentration 1.00E-08 M,2.6 RU
same,Response Unit (RU),MvfR protein (MvfRC87); Concentration 3.16E-06 M,26.5 RU
same,Response Unit (RU),MvfR protein (MvfRC87); Concentration 3.16E-07 M,16.9 RU
same,Response Unit (RU),MvfR protein (MvfRC87); Concentration 3.16E-08 M,5.4 RU
same,activity at 10 µM,ΔmvfR biofilm,25.4%
same,activity at 50 µM,[7]; [25],6%
same,activity at 50 µM,[7]; [26],739%
same,activity at 50 µM,[7]; [27],11%
same,activity at 50 µM,[7]; [28],2%
same,activity at 50 µM,[7]; [29],15%
same,activity at 50 µM,[7]; [30],9%
same,inhibition at 50 µM,[7]; [31],89 to 99%
same,inhibition at 50 µM,[7]; [32],40 to 92%
same,inhibition at 50 µM,[7]; [33],76 to 97%
same,inhibition at 50 µM,[7]; [34],82 to 95%
same,inhibition at 50 µM,[7]; [35],82 to 96%
same,inhibition at 10 µM,PA14 AT/P cells,≥ 76%
N#Cc1ccc(NC(=O)CC(=O)Nc2ccc(C#N)nc2)cc1 [D77],activity at 50 µM,"[1]; read-out: 2-AA, ΔmvfR-pqsABCD strain",104%
same,activity at 50 µM,"[1]; read-out: DHQ, ΔmvfR-pqsABCD strain",94.5%
same,activity at 50 µM,"[1]; read-out: HHQ, ΔmvfR-pqsABCD strain",98%
same,activity at 50 µM,[1]; [8],102%
same,activity at 50 µM,"[1]; read-out: PQS, ΔmvfR-pqsABCD strain",90.2%
same,activity at 50 µM,[2],1%
same,pIC50,[2],5.19
same,activity at 10 µM,[3],29.3%
same,activity at 10 µM,[4]; [9],15%
same,activity at 10 µM,[4]; [10],12.1%
same,activity at 10 µM,[4]; [11],20.6%
same,activity at 10 µM,[4]; [12],25.6%
same,activity at 10 µM,[4]; [13],35.1%
same,activity at 10 µM,[4]; [14],18.8%
same,activity at 10 µM,[4]; [15],8.31%
same,activity at 10 µM,[4]; [16],11.8%
same,activity at 10 µM,[4]; [17],22.6%
same,activity at 10 µM,[4]; [18],26.1%
same,activity at 10 µM,[4]; [19],19%
same,activity at 10 µM,[4]; [20],14.3%
same,activity at 10 µM,[4]; [21],39.2%
same,activity at 10 µM,[4]; [22],18.5%
same,activity at 10 µM,[4]; [23],18.9%
same,activity at 10 µM,[4]; [24],16.9%
same,solubility at 4 h,[5],3.9e-05 M
same,activity at 50 µM,[6],7%
same,pIC50,[6],5.39
same,Response Unit (RU),MvfR protein (MvfRC87); Concentration 1.00E-05 M,30.9 RU
same,Response Unit (RU),MvfR protein (MvfRC87); Concentration 1.00E-06 M,19.8 RU
same,Response Unit (RU),MvfR protein (MvfRC87); Concentration 1.00E-07 M,5.9 RU
same,Response Unit (RU),MvfR protein (MvfRC87); Concentration 1.00E-08 M,0.7 RU
same,Response Unit (RU),MvfR protein (MvfRC87); Concentration 3.16E-06 M,26.6 RU
same,Response Unit (RU),MvfR protein (MvfRC87); Concentration 3.16E-07 M,11.8 RU
same,Response Unit (RU),MvfR protein (MvfRC87); Concentration 3.16E-08 M,2.2 RU
same,activity at 10 µM,ΔmvfR biofilm,23.6%
same,activity at 50 µM,[7]; [25],19%
same,activity at 50 µM,[7]; [26],777%
same,activity at 50 µM,[7]; [27],20%
same,activity at 50 µM,[7]; [28],10%
same,activity at 50 µM,[7]; [29],64%
same,activity at 50 µM,[7]; [30],24%
same,inhibition at 50 µM,[7]; [31],89 to 99%
same,inhibition at 50 µM,[7]; [32],40 to 92%
same,inhibition at 50 µM,[7]; [33],76 to 97%
same,inhibition at 50 µM,[7]; [34],82 to 95%
same,inhibition at 50 µM,[7]; [35],82 to 96%
same,inhibition at 10 µM,PA14 AT/P cells,≥ 51%
